Reference: article PMC5004293, “Characterization of FRM-36143 as a new γ-secretase modulator for the potential treatment of familial Alzheimer’s disease” (Alzheimer's Research & Therapy, 2016)
pEC50: −log10 of the molar value. Entries after “also recorded” stand apart in the source; their conditions may differ. Like-named read-outs stand apart in the source and are kept apart here.

Assays:
γ-secretase [1] = assay: Immunoprecipitation / MALDI-TOF mass spectrometry of Aβ peptides in H4 cell media; assay type: cell-based, human; details: 300 nM, overnight
Procedure: Human neuroglioma H4 cells stably expressing wild-type human APP751 were used for this assay. Briefly, cells were plated at 15,000 cells/well in 96-well plates and left to settle for 6 h (37 °C; 5 % CO2). Cells were then washed three times with Pro293™ chemically defined medium (Lonza, Walkersville, MD, USA) followed by the addition of the compound (0.3 % final DMSO). Plates were incubated overnight, and the supernatant was removed for quantification of Aβ peptides by sandwich enzyme-linked immunosorbent assay (ELISA) (see below). Cytotoxicity was evaluated using Cell-Titer 96 W AQueous One Solution Cell Proliferation Assay (MTS Assay, Promega) according to the manufacturer’s protocol.
Immunoprecipitation of carboxyl-terminally truncated Aβ peptides from 4 mL of H4 cell media was conducted using the anti-Aβ antibody 6E10 (epitope 3–8 of Aβ; Covance, Inc., Dedham, MA, USA) or 4G8 (epitope 18–22 of Aβ; Covance, Inc., Dedham, MA, USA) coupled to magnetic beads as described elsewhere. After elution of the immunoprecipitated Aβ peptides, the detection was performed on an UltraFlextreme MALDI-TOF/TOF instrument (Bruker Daltonics, Bremen, Germany).

γ-secretase [2] = assay: Population PK/PD modeling of mouse brain Aβ42 reduction; assay type: in vivo; details: population PK/PD model, mice
Procedure: (§1) Mice and rats were maintained on 12/12 h light/dark cycle with food available ad libitum. Drug treatment was prepared in a vehicle of 1 % carboxymethylcellulose (CMC):Tween80 (99.5:0.5). Twelve-week-old wild-type male mice (129S6, Taconic Biosciences, Hudson, NY, USA) or rats (Wistar, Charles River Laboratories) were administered compound p.o. without prior fasting and euthanized by CO2 asphyxiation at specified times post-dosing. After extraction of the brain, the olfactory bulb and hindbrain were removed and the cerebral hemispheres separated (mice) or cut in 4 pieces (rats). The cerebellum was removed for bioanalysis of the compound. CSF was collected from the cisterna magna and blood from a cardiac puncture.
A population pharmacokinetic/pharmacodynamic (PK/PD) analysis was performed to obtain maximal efficacy (Emax) and concentration leading to 50 % of Emax (EC50) using the Phoenix® NLME™ (NonLinear Mixed Effect) program (version 6.3, Certara USA, Inc., St. Louis, MO). The goodness of fit was assessed based on visual inspection of curve fitting, Akaike’s information criterion (AIC), and precision of parameter estimation.

γ-secretase [3] = assay: Acute oral treatment of wild-type mice, brain Aβ peptides; assay type: in vivo, mouse
Procedure: For in vivo assessment of compound efficacy, brain tissue and cerebrospinal fluid (CSF) were collected, snap frozen in liquid nitrogen, and stored at −80 °C. Brain hemispheres were homogenized in 0.6 % diethylamine (DEA) in 50 mM NaCl containing protease inhibitor cocktail (cOmplete mini, EDTA-free, Roche) using sonication (Branson) at 23 % amplitude for 30 s. Homogenates were spun at 227,000 × g for 25 min at 4 °C. Supernatants were diluted fivefold in PBS-T (0.05 % Tween-20) containing 0.67 % BSA and added to the ELISA plate. For CSF, samples were diluted threefold in the PBS-T/BSA buffer. Detection was performed using the SuperSignal™ ELISA Femto substrate (Thermo Fisher), and luminescence was read on an EnVision plate reader (Perkin Elmer).
as §1

[4] = Compound exposure in rats (LC-MS/MS, brain tissue binding); assay type: in vivo; details: Wistar, oral, rat, 30 mg/kg, 6 h post-dose
Procedure: as §1
Cerebellums were homogenized in a Mini-BeadBeater (Biospec Products, Inc., Bartlesville, OK, USA). Brain samples, plasma, and CSF were prepared for LC-MS/MS by precipitating proteins with acetonitrile and vacuum filtration in the presence of an internal standard. Standards were prepared in the corresponding matrix. FRM-36143 was resolved by HPLC (Shimadzu) using a reverse-phase C18 Kinetex column (30X2.1 mM; Phenomenex, Torrance, CA, USA). […]
The unbound fraction in brain homogenate (fu,b) was determined in triplicate in the Rapid Equilibrium Dialysis device (8000 Da molecular weight cut-off membrane, Thermo Scientific/Pierce Biotechnology, Rockford, IL, USA). […]

[5] = WT mice, single oral dose 30 mg/kg, 6 h post-treatment
[6] = mice, time course 0.5-24 h, 30 mg/kg p.o.
[7] = mice, time course, 30 mg/kg p.o.

pEC50 (γ-secretase [2]; 30 mg/kg, unbound plasma concentration, 2.5–97.5 % CI 4.6–151 nM, read-out: In vivo EC50 for Aβ42): 7.11
concentration at 6 h ([4]; CSF, read-out: CSF concentration): 122 nM
concentration at 6 h ([4]; brain (unbound), calculated using brain tissue binding, read-out: Unbound brain exposure): 156 nM
SMILES: COc1nc(C2=NOC[C@H](c3cc4ccccc4o3)N2)ccc1-n1cnc(C)c1 [FRM-36143, (R)-5-(benzofuran-2-yl)-3-(6-methoxy-5-(4-methyl-1H-imidazol-1-yl)pyridin-2-yl)-5,6-dihydro-4H-1,2,4-oxadiazine]
Percentage change (vs. DMSO) Aβ1–33 (γ-secretase [1]): 161%
Percentage change (vs. DMSO) Aβ1–34 (γ-secretase [1]): 125%
Percentage change (vs. DMSO) Aβ1–37 (γ-secretase [1]): 407%
Percentage change (vs. DMSO) Aβ1–38 (γ-secretase [1]): 126%
Percentage change (vs. DMSO) Aβ1–39 (γ-secretase [1]): 46%
Percentage change (vs. DMSO) Aβ1–40 (γ-secretase [1]): 26%
Percentage change (vs. DMSO) Aβ1–42 (γ-secretase [1]): 21%
Percentage change (vs. DMSO) Aβ5–38 (γ-secretase [1]): 150%
Percentage change (vs. DMSO) Aβ5–40 (γ-secretase [1]): 40%
Normalized AUC Aβ1–33 (γ-secretase [1]; semi-quantitative): 2.9
Normalized AUC Aβ1–34 (γ-secretase [1]; semi-quantitative): 0.5
Normalized AUC Aβ1–37 (γ-secretase [1]; semi-quantitative): 23.6
Normalized AUC Aβ1–38 (γ-secretase [1]; semi-quantitative): 15
Normalized AUC Aβ1–39 (γ-secretase [1]; semi-quantitative): 1.6
Normalized AUC Aβ1–40 (γ-secretase [1]; semi-quantitative): 10
Normalized AUC Aβ1–42 (γ-secretase [1]; semi-quantitative): 0.4
Normalized AUC Aβ5–37 (γ-secretase [1]; semi-quantitative): 1.9
Normalized AUC Aβ5–38 (γ-secretase [1]; semi-quantitative): 1.5
Normalized AUC Aβ5–40 (γ-secretase [1]; semi-quantitative): 1.2
Maximal brain Aβ42 reduction (Emax) (γ-secretase [2]; 30 mg/kg data): 51%
Emax for effect on brain Aβ42 (γ-secretase [2]; 30 mg/kg data only, CV: 15 %): 0.51
Brain Aβ37 increase vs vehicle (γ-secretase [3]; [5]): 3.2 fold
Brain Aβ42 reduction vs vehicle (γ-secretase [3]; [5]): 43%
Calculated AUC0→24h of brain Aβ40 reduction (γ-secretase [3]; mice, 30 mg/kg p.o.): 31%
Calculated AUC0→24h of brain Aβ42 reduction (γ-secretase [3]; mice, 30 mg/kg p.o.): 34%
Peak reduction of brain Aβ40 (γ-secretase [3]; [6]): 40%
Peak reduction of brain Aβ42 (γ-secretase [3]; [6]): 45%
Change of brain Aβ37 and Aβ38 (γ-secretase [3]; mice, time course, 10 mg/kg p.o.): induced an increase in Aβ37 and Aβ38
Reduction of brain Aβ40 and Aβ42 (γ-secretase [3]; mice, time course, 10 mg/kg p.o., 10 mg/kg): did not reduce Aβ40 and Aβ42 to a great extent; also recorded: did not observe any efficacy
Peak increase of brain Aβ37 (γ-secretase [3]; [7]): 3.1 fold
Peak increase of brain Aβ38 (γ-secretase [3]; [7]): 2 fold
